PubChem BioAssay (NCI)
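Cells were grown in 96-well plates and exposed to each compound for 48 hours at five concentrations; endpoints were interpolated linearly between bracketing concentrations, or set to the highest concentration if not reached. GI50 = concentration required for 50% inhibition of growth. TGI is the concentration that stops growth completely.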

Legend:
Test in all cases: NCI tumour cell line growth inhibition, 48 h
786-0 renal = tested on: 786-0 renal
A498 renal = tested on: A498 renal
A549 NSCLC = tested on: A549 NSCLC
ACHN renal = tested on: ACHN renal
BT-549 breast = tested on: BT-549 breast
CAKI-1 renal = tested on: CAKI-1 renal
CCRF-CEM leukemia = tested on: CCRF-CEM leukemia
COLO 205 colon = tested on: COLO 205 colon
DU-145 prostate = tested on: DU-145 prostate
EKVX NSCLC = tested on: EKVX NSCLC
HCC-2998 colon = tested on: HCC-2998 colon
HCT-116 colon = tested on: HCT-116 colon
HCT-15 colon = tested on: HCT-15 colon
HL-60(TB) leukemia = tested on: HL-60(TB) leukemia
HOP-62 NSCLC = tested on: HOP-62 NSCLC
HS 578T breast = tested on: HS 578T breast
HT29 colon = tested on: HT29 colon
IGROV1 ovarian = tested on: IGROV1 ovarian
K-562 leukemia = tested on: K-562 leukemia
KM12 colon = tested on: KM12 colon
LOX IMVI melanoma = tested on: LOX IMVI melanoma
M14 melanoma = tested on: M14 melanoma
MALME-3M melanoma = tested on: MALME-3M melanoma
MCF7 breast = tested on: MCF7 breast
MDA-MB-231 breast = tested on: MDA-MB-231 breast
MDA-MB-435 = tested on: MDA-MB-435
MOLT-4 leukemia = tested on: MOLT-4 leukemia
NCI-H226 lung = tested on: NCI-H226 lung
NCI-H23 lung = tested on: NCI-H23 lung
NCI-H460 lung = tested on: NCI-H460 lung
NCI-H522 lung = tested on: NCI-H522 lung
NCI/ADR-RES ovarian = tested on: NCI/ADR-RES ovarian
OVCAR-3 ovarian = tested on: OVCAR-3 ovarian
OVCAR-4 ovarian = tested on: OVCAR-4 ovarian
OVCAR-5 ovarian = tested on: OVCAR-5 ovarian
OVCAR-8 ovarian = tested on: OVCAR-8 ovarian
PC-3 prostate = tested on: PC-3 prostate
RPMI-8226 leukemia = tested on: RPMI-8226 leukemia
RXF 393 renal = tested on: RXF 393 renal
SF-268 CNS = tested on: SF-268 CNS
SF-295 CNS = tested on: SF-295 CNS
SF-539 CNS = tested on: SF-539 CNS
SK-MEL-2 melanoma = tested on: SK-MEL-2 melanoma
SK-MEL-28 melanoma = tested on: SK-MEL-28 melanoma
SK-MEL-5 melanoma = tested on: SK-MEL-5 melanoma
SK-OV-3 ovarian = tested on: SK-OV-3 ovarian
SN12C renal = tested on: SN12C renal
SNB-19 CNS = tested on: SNB-19 CNS
SNB-75 CNS = tested on: SNB-75 CNS
SR leukemia = tested on: SR leukemia
SW-620 colon = tested on: SW-620 colon
T-47D breast = tested on: T-47D breast
TK-10 renal = tested on: TK-10 renal
U251 CNS = tested on: U251 CNS
UACC-257 melanoma = tested on: UACC-257 melanoma
UACC-62 melanoma = tested on: UACC-62 melanoma
UO-31 renal = tested on: UO-31 renal
HOP-92 NSCLC = tested on: HOP-92 NSCLC

## CCOc1ccc2c(-c3ccnc(Nc4cc(OC)cc(C(F)(F)F)c4)n3)cnn2n1
786-0 renal
  GI50: > 13.3 µM
  TGI: > 25 µM
A498 renal
  GI50: > 25 µM
  TGI: > 25 µM
A549 NSCLC
  GI50: > 14.7 µM
  TGI: > 25 µM
ACHN renal
  GI50: > 25 µM
  TGI: > 25 µM
BT-549 breast
  GI50: 18.2 µM
  TGI: > 25 µM
CAKI-1 renal
  GI50: > 10.3 µM
  TGI: > 25 µM
CCRF-CEM leukemia
  GI50: > 25 µM
  TGI: > 25 µM
COLO 205 colon
  GI50: > 25 µM
  TGI: > 25 µM
DU-145 prostate
  GI50: > 18.9 µM
  TGI: > 25 µM
EKVX NSCLC
  GI50: > 25 µM
  TGI: > 25 µM
HCC-2998 colon
  GI50: > 25 µM
  TGI: > 25 µM
HCT-116 colon
  GI50: 6.42 µM
  TGI: > 25 µM
HCT-15 colon
  GI50: > 23.3 µM
  TGI: > 25 µM
HL-60(TB) leukemia
  GI50: > 25 µM
  TGI: > 25 µM
HOP-62 NSCLC
  GI50: > 25 µM
  TGI: > 25 µM
HS 578T breast
  GI50: > 17.4 µM
  TGI: > 25 µM
HT29 colon
  GI50: 8.4 µM
  TGI: > 25 µM
IGROV1 ovarian
  GI50: 4.87 µM
  TGI: > 25 µM
K-562 leukemia
  GI50: 1.97 µM
  TGI: > 25 µM
KM12 colon
  GI50: 3.58 µM
  TGI: > 25 µM
LOX IMVI melanoma
  GI50: 15.7 µM
  TGI: > 25 µM
M14 melanoma
  GI50: > 25 µM
  TGI: > 25 µM
MALME-3M melanoma
  GI50: > 25 µM
  TGI: > 25 µM
MCF7 breast
  GI50: 1.13 µM
  TGI: > 25 µM
MDA-MB-231 breast
  GI50: 9.6 µM
  TGI: > 22.5 µM
MDA-MB-435
  GI50: 0.903 µM
  TGI: > 10.5 µM
MOLT-4 leukemia
  GI50: > 25 µM
  TGI: > 25 µM
NCI-H226 lung
  GI50: > 25 µM
  TGI: > 25 µM
NCI-H23 lung
  GI50: > 21.9 µM
  TGI: > 25 µM
NCI-H460 lung
  GI50: > 15.7 µM
  TGI: > 25 µM
NCI-H522 lung
  GI50: 1.85 µM
  TGI: > 10.9 µM
NCI/ADR-RES ovarian
  GI50: 4.66 µM
  TGI: > 25 µM
OVCAR-3 ovarian
  GI50: 6.2 µM
  TGI: > 25 µM
OVCAR-4 ovarian
  GI50: > 15.8 µM
  TGI: > 25 µM
OVCAR-5 ovarian
  GI50: > 25 µM
  TGI: > 25 µM
OVCAR-8 ovarian
  GI50: > 15.4 µM
  TGI: > 25 µM
PC-3 prostate
  GI50: > 15.5 µM
  TGI: > 25 µM
RPMI-8226 leukemia
  GI50: > 18.3 µM
  TGI: > 25 µM
RXF 393 renal
  GI50: 10.8 µM
  TGI: > 23.6 µM
SF-268 CNS
  GI50: > 18.9 µM
  TGI: > 25 µM
SF-295 CNS
  GI50: > 14.6 µM
  TGI: > 25 µM
SF-539 CNS
  GI50: 5.96 µM
  TGI: > 14.7 µM
SK-MEL-2 melanoma
  GI50: > 25 µM
  TGI: > 25 µM
SK-MEL-28 melanoma
  GI50: > 23 µM
  TGI: > 25 µM
SK-MEL-5 melanoma
  GI50: > 14.8 µM
  TGI: > 25 µM
SK-OV-3 ovarian
  GI50: > 25 µM
  TGI: > 25 µM
SN12C renal
  GI50: > 25 µM
  TGI: > 25 µM
SNB-19 CNS
  GI50: > 25 µM
  TGI: > 25 µM
SNB-75 CNS
  GI50: 15.1 µM
  TGI: > 25 µM
SR leukemia
  GI50: 1.32 µM
  TGI: > 25 µM
SW-620 colon
  GI50: 13 µM
  TGI: > 25 µM
T-47D breast
  GI50: 1.26 µM
  TGI: > 25 µM
TK-10 renal
  GI50: > 16.3 µM
  TGI: > 25 µM
U251 CNS
  GI50: > 13 µM
  TGI: > 25 µM
UACC-257 melanoma
  GI50: > 25 µM
  TGI: > 25 µM
UACC-62 melanoma
  GI50: > 10.9 µM
  TGI: > 25 µM
UO-31 renal
  GI50: > 25 µM
  TGI: > 25 µM

## O=C(Oc1cccc(Cl)c1)c1ccccc1Nc1ccnc(C(F)(F)F)c1
786-0 renal
  GI50: 3.53 µM
  TGI: 11.4 µM
A549 NSCLC
  GI50: 18.1 µM
  TGI: 55.1 µM
BT-549 breast
  GI50: 6.77 µM
  TGI: 27.6 µM
CAKI-1 renal
  GI50: 2.13 µM
  TGI: 4.1 µM
CCRF-CEM leukemia
  GI50: 0.898 µM
  TGI: 91.6 µM
DU-145 prostate
  GI50: 14.2 µM
  TGI: 27.6 µM
EKVX NSCLC
  GI50: 22.2 µM
  TGI: 46.4 µM
HCC-2998 colon
  GI50: 3.46 µM
  TGI: 6.66 µM
HCT-116 colon
  GI50: 1.63 µM
  TGI: 3.45 µM
HL-60(TB) leukemia
  GI50: 12.8 µM
  TGI: > 100 µM
HOP-62 NSCLC
  GI50: 24.9 µM
  TGI: 44.7 µM
HOP-92 NSCLC
  GI50: 8.74 µM
  TGI: 32.1 µM
HS 578T breast
  GI50: 20.8 µM
  TGI: 61 µM
IGROV1 ovarian
  GI50: 15.2 µM
  TGI: > 100 µM
K-562 leukemia
  GI50: 3.27 µM
  TGI: 34.3 µM
KM12 colon
  GI50: 9.53 µM
  TGI: 41.4 µM
M14 melanoma
  GI50: 1.77 µM
  TGI: 4.46 µM
MCF7 breast
  GI50: 4.78 µM
  TGI: 20 µM
MDA-MB-231 breast
  GI50: 1.69 µM
  TGI: 4.7 µM
MDA-MB-435
  GI50: 3.04 µM
  TGI: 10.7 µM
MOLT-4 leukemia
  GI50: 0.938 µM
  TGI: > 100 µM
NCI-H226 lung
  GI50: 2.15 µM
  TGI: 8.89 µM
NCI-H23 lung
  GI50: 2.41 µM
  TGI: 8.26 µM
NCI-H460 lung
  GI50: 11.2 µM
  TGI: 43.7 µM
NCI-H522 lung
  GI50: 4.21 µM
  TGI: 41.1 µM
NCI/ADR-RES ovarian
  GI50: 2.24 µM
  TGI: 6.1 µM
OVCAR-3 ovarian
  GI50: 3.8 µM
  TGI: 18.1 µM
OVCAR-5 ovarian
  GI50: 13.8 µM
  TGI: 57 µM
OVCAR-8 ovarian
  GI50: 3.52 µM
  TGI: 18.1 µM
PC-3 prostate
  GI50: 7.39 µM
  TGI: 23.6 µM
RPMI-8226 leukemia
  GI50: 1.83 µM
  TGI: 4.33 µM
SF-268 CNS
  GI50: 3.03 µM
  TGI: 10.8 µM
SF-295 CNS
  GI50: 18.3 µM
  TGI: 45.5 µM
SF-539 CNS
  GI50: 2.79 µM
  TGI: 7.24 µM
SK-MEL-2 melanoma
  GI50: 15.7 µM
  TGI: > 100 µM
SK-MEL-5 melanoma
  GI50: 2.59 µM
  TGI: 6.73 µM
SN12C renal
  GI50: 2.92 µM
  TGI: 6.18 µM
SR leukemia
  GI50: 0.434 µM
  TGI: > 100 µM
SW-620 colon
  GI50: 4.33 µM
  TGI: 23.3 µM
TK-10 renal
  GI50: 85 µM
  TGI: > 100 µM
UACC-62 melanoma
  GI50: 2.02 µM
  TGI: 6.71 µM
UO-31 renal
  GI50: 23.5 µM
  TGI: > 100 µM
